Assay results from patent US10010581B2, “Syndecan peptides and polypeptides and uses thereof” (Wisconsin Alumni Research Foundation, priority 2012, dated 2018).

Columns and labels:
[1] = tested on: HaCat keratinocytes or MCF10A mammary epithelial cells; assay: competition of LPA-induced haptotactic migration by GST fusion proteins or synthetic peptides (FIG. 10 summary); format: cell-based, human; settings: 0.1 to 30 μM, 3 μM LPA
Method: FIGS. 10A-C. Schematic summary of experiments using either recombinant GST fusion proteins or synthetic peptides to disrupt Sdc1-dependent coupling of HER2 to α6β4 integrin necessary for LPA-induced haptotactic migration. GST-fusion proteins or synthetic peptides were added at concentrations ranging from 0.1 to 30 μM to the culture medium of human HaCat keratinocytes or MCF10A mammary epithelial cells in the presence or absence of 3 μM LPA. The ability of the constructs to inhibit the migration of the cells to close a scratch wound in confluent monolayers was determined and expressed as the concentration of inhibitor necessary to cause 50% inhibition of cell migration. (FIG. 10A) Competition using recombinant GST-fusion proteins. GST-Sdc1 fusion proteins bearing truncations or mutations were assessed for their competitive activity. […] (FIG. 10B) Competition with synthetic peptides. Peptides were purchased from commercial sources for testing as a putative synstatin inhibitory peptide (SSTNHER2). […] (FIG. 10C) Schematic representation of the active site in Sdc1. The active site is shown as a juxtamembrane site in the ectodomain of Sdc1. TM is the transmembrane domain and CYTO is the cytoplasmic domain. The sequence of a peptide derived from this site (SSTNHER2) is shown along with its homology across other mammalian Sdc1 species. The human STTNHER2 sequence is SEQ ID NO:23; the homology for STTNHER2 across mammals is SEQ ID NO:24.
HaCat or MCF10A cells were grown to confluence on 48 well-plates were starved for 6 hr by serum deprivation followed by introduction of a scratch wound in the monolayer using 200 μl pipette tip. Cells were cultured an additional 18 hr in DMEM containing mAb 3E1 (10 μg/ml) and goat anti-mouse IgG (50 μg/ml), EGF (10 ng/ml) or HGF (20 ng/ml) to cause cell migration in the presence or absence of inhibitors. Images were acquired using a PlanApo 20 (0.75 numerical aperture) objective and a Photometrics CoolSnap ES camera on a Nikon Eclipse TE2000U microscopy system and wound closure quantified.

[2] = tested on: HaCat human keratinocytes; assay: total cell number, CellTiterGLO assay; format: cell-based; settings: single peptide, concentrations as high as 30 μM, 4 or 7 days
Method: FIGS. 11A-F. SSTN treatment of normal (nontransformed) epithelial cells versus carcinoma (transformed) cells. Cells are plated for one day, then treated with either 3-30 μM […] (SSTN-I), 3-30 μM […] (SSTN-E), 3-30 μM SSTNHER2 (SSTN-H) or combinations of the three peptides, each at 10 μM to test their additive effect. […] The treatment times are chosen to reflect only modest effects of the peptides used singly, so that the more pronounced effect of peptides used in combination can still be observed. Treatment for longer times leads to significant cell death observed even with single peptides alone. (FIG. 11A) HaCat human keratinocytes, an example of a normal stratified epithelium, (FIG. 11B) UM-SCC47 cells, a squamous cell carcinoma derived from the tongue of a patient (a stratrified epithelium), (FIG. 11C) SCC25 cells, another squamous cell carcinoma from the tongue of a patient (FIG. 11D) MCF10A cells, a normal human breast epithelium, (FIG. 11E) MDA-MB-468 cells, a triple-negative (TN) breast carcinoma, and (FIG. 11F) SKBr3 cells, a HER2+ human breast carcinoma. Note that the “triple-negative” designation of the MDA-MB-468 carcinoma means the cells are negative for progesterone receptor, estrogen receptor and the HER2 kinase. Thus, they would not be expected to rely on HER2. Indeed, these cells are not affected by SSTNHER2, either alone or when combined with the other peptides. […]

HaCat keratinocytes = assay: scratch wound haptotaxis induced by LPA and clustering of α6β4 integrin; format: cell-based, human; settings: LPA + α6β4 clustered with mAb 3E1 and secondary antibody, AG825 10 μM, Iressa 1 μM
Text: FIG. 6A-D. Sdc1 is required for HER2/α6β4-dependent HaCat keratinocyte migration. (FIG. 6A) HaCat keratinocytes deposit laminin 332 (LN332) and migrate upon this using α3β1 and α6β4 integrins to close a scratch wound in the monolayer when stimulated to undergo chemotaxis in response to EGF. Alternatively, migration is induced by clustering the integrin (using mAb 3E1 against the integrin+a secondary antibody to cluster the first antibody and thus the entire complex) in the presence of LPA. This mimics the clustering that occurs when the cells engage LN332 and is referred to as haptotaxis. […] (FIG. 6B) Haptotaxis, stimulated by LPA and clustering of α6β4 integrin as described in FIG. 6A, is blocked by antibody directed against the α3β1 integrin or by BM165 which targets the binding site for α3β1 in LN332. […] (FIG. 6C) The potential roles of Sdc1 or Sdc4 in haptotaxis is tested by silencing their expression, together with attempting to rescue with either wild-type mouse Sdc1 or Sdc4, or mouse mutants unable to engage the β4 cytoplasmic domain (mSdc1ΔC2 or mSdc4ΔC2). Haptotaxis is blocked by silencing endogenous Sdc1, and this cannot be rescued by Sdc1ΔC2 that fails to engage the α6β4 integrin. Silencing Sdc4 also disrupts migration, but this traces to its role in activity of the α3β1 integrin and not a role in engaging the α6β4 integrin, as it can be rescued by mSdc4ΔC2 that fails to associate with the α6β4 integrin. (FIG. 6D) Immunoprecipitation of either native mSdc4 or mSdc4[…]C2 confirms that the mSdc4ΔC2 mutant no longer associates with the α6β4 integrin, but does with the α3β1 integrin. […]
HaCat or MCF10A cells were grown to confluence on 48 well-plates were starved for 6 hr by serum deprivation followed by introduction of a scratch wound in the monolayer using 200 μl pipette tip. […] Images were acquired using a PlanApo 20 (0.75 numerical aperture) objective and a Photometrics CoolSnap ES camera on a Nikon Eclipse TE2000U microscopy system and wound closure quantified. […]

## SSTNHER2: synthetic peptide of human Sdc1 ectodomain amino acids 210-240 (SEQ ID NO:3), inhibits Sdc1 coupling of HER2 to α6β4 integrin (DFTFETSGENTAVVAVEPDRRNQSPVDQGAT; listed as Homo sapiens)
[1]
  competitive (inhibitory) activity on haptotactic migration: fully active
[2]
  growth or survival: no effect
HaCat keratinocytes
  haptotaxis (migration to close a scratch wound): blocks haptotaxis
